US5026701A, “Morpholine compounds, compositions and use” (Adir et Compagnie, priority 1989, dated 1991)

Legend:
mice [1] = test: Hypothermia with apomorphine (16 mg/kg i.p.); format: in vivo; details: 30 minutes before apomorphine 16 mg/kg i.p.
Procedure: The administration of a very strong dose of apomorphine (16 mg/kg i.p.) causes hypothermia of approximately 4° C. by the stimulation of dopaminergic heteroreceptors situated on the noradrenergic neurones. The so-created hypothermia is thus due to the failure of noradrenergic neurotransmission. The facilitating agents administered 30 minutes beforehand counteract this hypothermia.

[2] = Lethal dose test with yohimbine (potentiation of yohimbine 30 mg/kg i.p.), percentage mortality; format: in vivo, mice; details: mouse, in vivo; yohimbine lethality potentiation, mice; read-out: relationship between the mean effective p.o. and i.p. doses (oral bioavailability)
Procedure: (§1) Male mice are administered yohimbine (α2 antagonist) by the intraperitoneal route at a dose of 30 mg/kg, a non-lethal dose which only causes the occurrence of hyperexcitability symptoms or convulsions. Any compound that facilitates noradrenergic neurotransmission potentiates the releasing effect of the yohimbine and brings about the death of the animals.
(§2) A percentage mortality is thus measured for each group of animals treated 30 minutes beforehand i.p. or 60 minutes beforehand p.o. with the compound examined.

mice [3] = test: Cerebral protecting effects: acute global hypoxia (barometric depressurization to 160 mbar), cerebral survival time; format: in vivo; details: 30 minutes before hypoxia; for increase in the survival time: male mice
Procedure: The cerebral survival time taken as the occurrence of the last respiratory gasp is measured in control animals and in animals that have received the compound under examination 30 minutes beforehand by the intraperitoneal route.

mice [4] = test: as above; format: in vivo; details: 60 minutes before hypoxia
[5] = test system: synaptosomal reuptake of noradrenaline (NAD); test: Synaptosomal reuptake of tritiated noradrenaline in vitro; format: biochemical; details: 10^-6 M, synaptosomes, versus control preparation
Procedure: This effect was examined in the […] by measuring the synaptosomal reuptake of noradrenaline (NAD). For this, a fraction of synaptosomes is placed in the presence of tritiated NAD with or without previous incubation with the compound examined.
A measurement of the radioactivity in the synaptosomal pellet makes it possible to calculate the quantity of NAD reuptaken naturally by neurone endings. A compound inhibiting the reuptake reduces the radioactivity measured and a percentage inhibition is measured by comparison with a control preparation.

mice [6] = test: Psycho-awakening effect: sodium barbital (270 mg/kg i.p.) induced narcosis duration; format: in vivo; details: 30 μmols/kg i.p.
Procedure: Male mice are administered sodium barbital by the i.p. route at a dose of 270 mg/kg. The duration of the narcosis so induced is compared between control animals and animals treated beforehand by the i.p. route with the compounds examined.

mice [7] = test: Hexobarbital (75 mg/kg i.p.) induced narcosis duration; format: in vivo
Procedure: This antagonism of barbital-induced narcosis reflects a psycho-awakening effect since no antagonism occurs when narcosis is induced with hexobarbital (75 mg/kg i.p.) (product of Example 2β:+20%; product of Example 1:+26%).

mice [8] = test: Lethal dose test with yohimbine (potentiation of yohimbine 30 mg/kg i.p.), percentage mortality; format: in vivo; details: 9 μmols/kg i.p., 30 minutes before yohimbine 30 mg/kg i.p.
Procedure: as §1, §2

SMILES	inhibiting effect vis-a-vis hypothermia (mice [1]; 9 μmols/kg)	ratio of mean effective p.o. to i.p. dose [2]	increase in the survival time (mice [3]; 9 μmols/kg i.p.)	increase in the survival time (mice [3]; 30 μmols/kg i.p.)	increase in the survival time (mice [3]; 90 μmols/kg i.p.)	increase in the survival time (mice [3]; 3 μmols/kg i.p.)	inhibition of the reuptake of NAD [5] [%]	inhibiting effect vis-a-vis hypothermia (mice [1]; 3 μmols/kg)	change in duration of narcosis with barbital (mice [6]) [%]	further results
Fc1ccc(OCC2CNCCO2)c2c1CCCN2 (racemic) [Example 2, R,S-5-fluoro-8-(2-morpholinylmethoxy)-1,2,3,4-tetrahydroquinoline]	-29%									
CS(=O)(=O)O.Fc1cc2c(c(OC[C@H]3CNCCO3)c1)NCCC2 [Example 1α, R-6-fluoro-8-(2-morpholinylmethoxy)-1,2,3,4-tetrahydroquinoline monomethanesulphonate]		3.16	+37%	+55%	+114%					increase in the survival time (mice [4]; 9 μmols/kg orally): 37%
Fc1ccc(OC[C@H]2CNCCO2)c2c1CCCN2 [Example 2α, R-5-fluoro-8-(2-morpholinylmethoxy)-1,2,3,4-tetrahydroquinoline monomethanesulphonate]		1.77								
Fc1cc2c(c(OC[C@@H]3CNCCO3)c1)NCCC2 [Example 1β, S-6-fluoro-8-(2-morpholinylmethoxy)-1,2,3,4-tetrahydroquinoline monomethanesulphonate]			+42%	+62%	+108%	+21%	-55.4			
Fc1ccc(OC[C@@H]2CNCCO2)c2c1CCCN2 [Example 2β, S-5-fluoro-8-(2-morpholinylmethoxy)-1,2,3,4-tetrahydroquinoline monomethanesulphonate]	-21%					21%	-58.9	-16%	40	change in duration of narcosis induced with hexobarbital (mice [7]): +20%
c1cc2c(c(OCC3CNCCO3)c1)NCCC2 (racemic) [reference product, R,S-8-[(2-morpholinyl)methoxy]-1,2,3,4-tetrahydroquinoline, reference compound]	+0.5%	4.25	+17%	+42%	+87%	+5%	33.6	no effect	-20	mortality (mice [8]): +20%; minimal effective dose (mice [3]; Mus musculus, ip, read-out: dose from which hypoxia is significantly counteracted (protecting effect obtained)): 9 µmol/kg; increase in the survival time (mice [4]; 40 μmols/kg orally): 31%
Fc1cc2c(c(OCC3CNCCO3)c1)NCCC2 (racemic) [Example 1, R,S-6-fluoro-8-(2-morpholinylmethoxy)-1,2,3,4-tetrahydroquinoline]	-46%							-27%	-36	change in duration of narcosis induced with hexobarbital (mice [7]): +26%
